Several values for one entry are separate records, joined by “and”; a condition that tells them apart may be missing. Identical values can stand only once.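 Cultured in 96-well plates, cells were exposed to test compound for 48 hours across five concentrations. Here, GI50 denotes the concentration required for 50% inhibition of growth. At the TGI there is no net growth.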

Among the data in PubChem BioAssay (NCI) are TGI and GI50 values, retold here.

Assay in all cases: inhibition of tumour cell growth, NCI panel, 48 h
Experiment [1] relates to A549 NSCLC.
For experiment [2], the system named is BT-549 breast.
Experiment [3] deals with HOP-62 NSCLC.
Experiment [4] concerns LOX IMVI melanoma.
Experiment [5] has as its system MDA-N.
The subject of experiment [6] is NCI-H226 lung.
Experiment [7] relates to RPMI-8226 leukemia.
Experiment [8] relates to SK-MEL-28 melanoma.
Experiment [9] concerns SK-MEL-5 melanoma.
The test system of experiment [10] is SN12C renal.
Experiment [11] deals with SR leukemia.
Experiment [12] deals with UACC-62 melanoma.

As to `COC1C(OC(C)=O)CC(=O)OC(C)C/C=C/C=C\C(O)C(C)CC(CC=O)C1OC1OC(C)C(OC2CC(C)(O)C(OC(=O)CC(C)C)C(C)O2)C(N(C)C)C1O` (centres undefined), the TGI in experiment [1], in experiment [2], in experiment [3], in experiment [4], in experiment [5] and in [6] was > 100 µM in each case. Besides, the TGI in [7] was > 100 µM; in experiment [8] it was > 100 µM; in experiment [9], > 100 µM; in [10], > 100 µM; in experiment [11], 69 µM and 38.7 µM; in experiment [12] it was > 100 µM. For the same compound, the GI50 in [4] is 41.4 µM and > 100 µM.
Take `CS(=O)(=O)CCC(N)P(=O)(O)O` (centres undefined): the TGI in [1], in experiment [2], in experiment [3], in experiment [4], in experiment [5] and in experiment [6] was > 100 µM each time. Further, the TGI in [7], in experiment [8], in [9], in [10], in experiment [11] and in experiment [12] was > 100 µM throughout.
For the compound `COc1ncc(C#CC(=O)c2ccccc2)c(OC)n1`, the TGI came out at 33.1 µM in [1]; 5.33 µM in experiment [2]; 42 µM in [3]; 3 µM in experiment [4]; 3.73 µM in [5]; 5.46 µM in experiment [6]. The TGI is > 21.9 µM in [7]; 11.4 µM in experiment [8]; 6.68 µM in experiment [9]; 2.78 µM in experiment [10]; 4.68 µM in [11]; 8.78 µM in experiment [12].
Take `CC1(C)/C(=N\Nc2ccc([N+](=O)[O-])cc2[N+](=O)[O-])C2CCC1C2` (centres undefined): the TGI in experiment [1], in experiment [2], in experiment [3], in [4], in experiment [5] and in experiment [6] was > 100 µM throughout. Moreover, the TGI in experiment [7], in experiment [8], in experiment [9], in experiment [10], in experiment [11] and in experiment [12] was > 100 µM throughout.
`COC(=O)[C@]1(Cc2ccc3ccccc3c2)CCCCCCN1C(=O)c1ccccc1`: the TGI is > 100 µM in [1]; > 54 µM in experiment [2]; > 46.5 µM in experiment [3]; 30.3 µM in experiment [4]; > 53.5 µM in experiment [5]; > 52.8 µM in experiment [6]. Besides, the TGI was 17.9 µM in [7]; > 52.1 µM in experiment [8]; > 100 µM in experiment [9]; > 51.5 µM in experiment [10]; > 100 µM in experiment [11]; > 51.3 µM in experiment [12].
For the compound `CC(=O)OCCCCn1cnc2c(Cl)nc(Nc3ccccc3)nc21`, the TGI in experiment [1], in experiment [2], in experiment [3], in experiment [4], in [5] and in experiment [6] was > 100 µM each time. Also, the TGI in experiment [7], in [8], in experiment [9], in experiment [10], in [11] and in experiment [12] was > 100 µM in each case.
As for `C(/C=C/Nc1ccc(-c2ccccc2)cc1)=Nc1ccc(-c2ccccc2)cc1`, the TGI in [1], in experiment [2], in experiment [3], in experiment [4], in experiment [5] and in experiment [6] was > 100 µM each time. Further, the TGI in [7], in [8], in [9], in experiment [10], in experiment [11] and in experiment [12] was > 100 µM in each case.
As for `COc1ccc(-c2nc(SC)n(C3OC(COC(C)=O)C(OC(C)=O)C(OC(C)=O)C3OC(C)=O)c(=O)c2C#N)cc1` (centres undefined), the TGI in [1] was > 100 µM; in experiment [2], > 100 µM; in experiment [3], 52.7 µM and > 100 µM; in experiment [4] it was > 100 µM; in experiment [5], > 100 µM; in experiment [6] it was > 100 µM. Moreover, the TGI in experiment [7], in [8], in [9], in experiment [10], in experiment [11] and in [12] was > 100 µM throughout. For the same compound, the GI50 was 24.4 µM and > 100 µM in experiment [3]; 47.4 µM and > 100 µM in experiment [7]; 40.5 µM and > 100 µM in [12].
As for `CCOC(=O)/C=C(/C(=O)OCC)n1ccc(=O)n(CC(=O)OCC)c1=O`, the TGI is 16.8 µM in experiment [1]; 4.61 µM in experiment [2]; 34.7 µM in experiment [3]; 1.81 µM in [4]; 8.31 µM in experiment [5]; 5.31 µM in experiment [6]. Further, the TGI in experiment [7] worked out at 4.35 µM; in experiment [8] it was 3.32 µM; in [9], 6.21 µM; in experiment [10], 4.61 µM; in experiment [11], 3.61 µM; in [12], 3.24 µM. Moreover, the GI50 in experiment [4] is 0.422 µM; in experiment [7], 1.77 µM; in experiment [10], 2 µM.
As to `Cc1cc(=O)n2nc(CSc3n[nH]c(=S)s3)sc2n1`, the TGI in experiment [1], in experiment [2], in [3], in experiment [4], in [5] and in experiment [6] was > 100 µM throughout. The TGI in experiment [7], in experiment [8], in [9], in [10], in [11] and in experiment [12] was > 100 µM in each case.
With `FC(F)(F)C1(c2ccccc2)SCc2nc3ccccc3n21` (centres undefined), the TGI in experiment [1], in [2], in [3], in experiment [4], in experiment [5] and in experiment [6] was > 100 µM in each case. In addition, the TGI in experiment [7], in experiment [8], in experiment [9], in experiment [10], in experiment [11] and in [12] was > 100 µM in each case.
